Our source for the inhibition values is US9481684B2, “Gonadotropin releasing hormone receptor antagonists, method for the preparation thereof and pharmaceutical composition comprising the same” (SK CHEMICALS CO., LTD., priority 2012, dated 2016).

In experiment [1] the target is T1, GnRH receptor (Homo sapiens, UniProt P30968).
T1 sequence (P30968 1-328): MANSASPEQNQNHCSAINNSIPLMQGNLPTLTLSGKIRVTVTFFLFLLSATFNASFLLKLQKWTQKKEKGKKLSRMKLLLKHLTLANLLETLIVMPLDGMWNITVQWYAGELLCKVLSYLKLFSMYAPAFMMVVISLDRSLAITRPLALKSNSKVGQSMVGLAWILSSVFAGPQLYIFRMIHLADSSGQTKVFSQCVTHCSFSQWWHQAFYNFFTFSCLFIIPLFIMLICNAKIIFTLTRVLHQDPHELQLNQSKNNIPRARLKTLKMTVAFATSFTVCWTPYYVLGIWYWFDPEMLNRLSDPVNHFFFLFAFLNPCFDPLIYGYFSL
Description: NFAT reporter (luciferase) gene expression assay for antagonistic effect on GnRH receptor, HEK293 transformed with pcDNA3.1/GnRH receptor and pGL4/NFAT promoter. In kind it is cell-based. To be noted: compound at 100 nM; leuprolide acetate as ligand; HEK293; read-out: NFAT reporter activity inhibition (%) at 100 nM. As to the method:
For evaluation of antagonistic effect on GnRH receptor, double-transformed cell line, HEK293 (ATCC CRL-1573) which is transformed with pcDNA3.1/GnRH receptor and pGL4/NFAT promoter, was employed.
To conduct a GnRH receptor assay, the HEK293 (ATCC CRL-1573) cell line was diluted at a density of 3×10^4 cells/well in a DMEM medium supplemented with 10% FBS, 1% Penicillin-Streptomycin, and plated into polylysine-coated 96-well plates having a white-clear bottom, followed by incubating the cells at 37° C. for 24 hrs. Then, the medium was changed with a serum-free DMEM medium (1% Penicillin-Streptomycin), and the cells were incubated for an additional 16 hrs before use.
Test compounds were added to the wells in an amount of 1 μM to 0.01 nM, respectively, and further incubated for 1 hr. Then, leuprolide acetate as a ligand (Sigma) was added to the wells in an amount of 1 nM or 20 nM and subjected to an additional incubation for 6 hrs. The reagent of Luciferase assay system (Promega, Cat. No. E1500) was added to the wells and luminescence was measured using a luminometer (PerkinElmer, VICTOR3™, 1420 Multilabel Counter). The compound of formula 10b described in J. Med. Chem. 2008, 51, 7478 was used as a comparative compound.
Each sample was analyzed at a 6-dose level and the NFAT reporter inhibitory rate (%) of the inventive compounds was calculated according to the following equation based on the measured luminescence. Inhibition (%)={1−(compound−negative control)/(positive control−negative control)}×100 [Equation]
wherein, positive control is GnRH treated group; and negative control is non-treated group.

Experiment [2] addresses T1, GnRH receptor. Description: GnRH receptor-membrane binding assay ([125I]-D-Trp6-LHRH displacement). The settings on record: compound at 10 nM; 0.2 nM [125I]-D-Trp6-LHRH; CHO-K1 GnRH receptor membrane; read-out: GnRH binding inhibition (%) at 10 nM. Also on record: purchased PerkinElmer; host or cells: CHO-K1 (ATCC CCL-61), stably transfected. As to the method: A GnRH receptor membrane binding assay was carried out for the compounds of the present invention by employing a membrane substrate (PerkinElmer) isolated from CHO-K1 cells (ATCC CCL-61) stably transfected with a GnRH receptor.
A reaction was initiated by the addition of a 0.2 nM [^125I]-labeled D-Trp^6-LHRH peptide and the GnRH receptor membrane substrate at a density of 1 μg/250 μL/well, together with the inventive compounds at various concentrations ranging from 0.1 nM to 100 nM, to a binding buffer composed of 25 mM Hepes (pH 7.4), 10 mM MgCl2, 1 mM CaCl2 and 0.5% BSA (pH 7.4). The reaction mixture was incubated at 27° C. for 1 hr and subjected to vacuum suction for binding to a filter (Fitermat A, PerkinElmer). The filter was washed several times with 50 mM tris-HCl buffer to terminate the reaction. The radioactivity binding to the filter was measured using MicroBeta2 TriLux (PerkinElmer). The binding inhibition rate (%) of the inventive compounds were analyzed on the basis of the measured radioactivity, and IC50 value was calculated using a non-linear least square regression method with Prism (GraphPad, Inc.).

What is called inhibition is the drop in the measured response relative to a control, in per cent. Take `CONC(=O)Nc1cccc(C(Cn2c(=O)c3c(n(Cc4c(F)cccc4C(F)(F)F)c2=O)COC32CCN(Cc3ccc(C(F)(F)F)o3)CC2)NC(=O)OC(C)(C)C)c1` (centres unmarked) [Example 63, tert-butyl (2-(1-(2-fluoro-6-(trifluoromethyl)benzyl)-2,4-dioxo-1′-((5-(trifluoromethyl)furan-2-yl)methyl)-1H-spiro[furo[3,4-d]pyrimidine-5,4′-piperidin]-3(2H,4H,7H)-yl)-1-(3-(3-methoxyureido)phenyl)ethyl)carbamate]: the inhibition at 0.1 µM at GnRH receptor [1] was 100%. The inhibition at 0.01 µM on GnRH receptor [2] was determined as 89.8%.
